The values below come from ChEMBL document CHEMBL3217405, “Methanocarba ring as a ribose modification in ligands of G protein-coupled purine and pyrimidine receptors: synthetic approaches” (Medchemcomm, 2013).

SMILES strings stand for the structures.

In test [1] the target is Adenosine receptors; A1 & A3 (Homo sapiens) (UniProt P30542+P0DMS8). Kind of test: Selectivity ratio of adenosine A3 receptor (unknown origin) over adenosine A1 receptor (unknown origin).
Test [2] concerns the target T1, Adenosine receptor A3 (Homo sapiens, UniProt P0DMS8).
T1 sequence (P0DMS8 whole entry): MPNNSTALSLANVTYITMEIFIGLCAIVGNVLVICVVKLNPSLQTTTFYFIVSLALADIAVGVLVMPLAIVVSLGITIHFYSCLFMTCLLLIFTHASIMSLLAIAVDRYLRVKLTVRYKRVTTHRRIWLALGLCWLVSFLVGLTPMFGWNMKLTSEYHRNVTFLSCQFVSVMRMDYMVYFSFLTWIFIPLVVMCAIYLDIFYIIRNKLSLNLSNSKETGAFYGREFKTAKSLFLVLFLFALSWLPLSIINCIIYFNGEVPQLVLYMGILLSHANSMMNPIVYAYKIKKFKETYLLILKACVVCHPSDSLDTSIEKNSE
The experiment in a line: Agonist activity at adenosine A3 receptor (unknown origin) assessed as stimulation of [35S]GTPgammaS binding. In kind it is functional.

Test [3] concerns the target T1, Adenosine receptor A3. Kind of test: Binding affinity to adenosine A3 receptor (unknown origin).

In the case of `CNC(=O)[C@@]12C[C@@H]1[C@@H](n1cnc3c(NC)nc(Cl)nc31)[C@H](O)[C@@H]2O`, the Selectivity ratio in test [1] is 130.

The EC50 is the midpoint of the concentration-response curve. Take `OC[C@@]12C[C@@H]1[C@@H](n1cnc3c(NCc4cccc(I)c4)nc(Cl)nc31)[C@H](O)[C@@H]2O`: on Adenosine receptor A3 [2], the EC50 was below 0.001 µM. As to `CNc1ncnc2c1ncn2[C@H]1[C@H](O)[C@H](O)[C@]2(CO)C[C@H]12`, the Selectivity ratio in test [1] stood at 12. In general, Ki refers to the dissociation constant of the complex between target and ligand, obtained from inhibition or displacement. High values mean weaker binding, low ones tighter binding. As to `O=P(O)(OC[C@@]12C[C@@H]1[C@@H](n1cnc3c(O)ncnc31)[C@H](O)[C@@H]2O)OP(=O)(O)OC[C@@]12C[C@@H]1[C@@H](n1cnc3c(O)ncnc31)[C@H](O)[C@@H]2O`, the affinity on Adenosine receptor A3 [3] corresponds to a Ki of 22 µM. `CNc1nc(Cl)nc2c1ncn2[C@H]1[C@H](O)[C@H](O)[C@]2(CO)C[C@H]12`: the Selectivity ratio in test [1] stood at 39. Take `OC[C@@]12C[C@@H]1[C@@H](n1cnc3c(NCc4cccc(I)c4)ncnc31)[C@H](O)[C@@H]2O`: on Adenosine receptor A3 [2], the EC50 is below 0.001 µM.
